Experimental findings from US4254285A, “1-Hydroxymethyl-1-1-oxo prostane derivatives of the E and F series” (American Cyanamid Company, priority 1979, dated 1981) are described below.

Read-outs that look alike come from different tables or passages of the source.

Broadly, the inhibition is the share of the control response that was lost under treatment. A high value points to a response far below the control. In general, ED50 refers to the dose at which the effect has come halfway, by size or by number of responders.

Data set [1] deals with continuous respiratory spasm induced by pilocarpine. As to the kind of experiment: Bronchodilator Activity (Pilocarpine Assay). In kind it is in vivo. As to conditions: dog, aerosol, 3.2 mg/ml; for inhibition at 3200 µg/mL: Canis lupus familiaris, inhaled or nasal. How it is done:
The PGE compounds of this invention also have bronchodilator activity as determined in a test using dogs anesthetized, artificially ventilated and submitted to a continuous respiratory spasm induced by pilocarpine. Mongrel dogs of either sex weighing between 5 and 10 kg are used. They are premedicated with morphine HCl by subcutaneous injection at 1.5 mg/Kg. An intravenous perfusion of 5% (W/V) chloralose is started 1/2 hour after the morphine injection in such a way that 60 mg/Kg are administered within 15 minutes. After completion, a continuous perfusion of 10 mg/Kg hour is maintained throughout the experiment. The dogs are artificially ventilated by means of a Starling pump at a rate of 20 breaths/minute. The volume is adjusted according to the weight of the animal. [Kleinman and Radford, J. Appl. Physiol., 19, 360 (1964)]. All the measurements are made with the dogs positioned supine in a heated, V-shaped table. Curarization is obtained by succinylcholine chloride using a starting injection of 3 mg/Kg lasting 3 minutes, followed by a continuous perfusion of 0.1 mg/Kg/minute. The respiratory spasm is induced by a starting injection of 400 mcg/Kg of pilocarpine HCl lasting 5 minutes. An increase or decrease in the dose of pilocarpine HCl may occur as a function of the observed effect on airway's resistance. A 15 minute delay is observed before the start of a continuous perfusion of pilocarpine HCl at a dose of 4 mcg/Kg/minute to maintain a constant spasm during the test. A metallic cannula is inserted and fixed, after tracheotomy, into the upper part of the trachea. The two cephalic veins and the two femoral veins are catheterized to inject the various agents. The femoral artery is catheterized to measure the systemic blood pressure. An esophageal balloon (11 cm×2.5 cm) is inserted into the lower third of the oesophagus to measure the endothoracic pressure. The measurement of air flow is made with a […] pneumotachograph connected to the tracheal tube. The transpulmonary pressure is measured as follows: The tracheal cannula is equipped with a stainless steel axial tube (1.5 mm) which is closed at its distal end and projected 2.5 cm beyond the end of the cannula. Three holes with a diameter of one mm are pierced on this latter segment. This tube, which is used to measure the tracheal pressure, is connected to one of the two chambers of a Sanborn 267 B/C differential transducer. The other chamber is connected to the esophageal balloon by means of a polyethylene catheter of the same length and characteristics as the balloon's. The airway's resistance, expressed in cm of water/liter/second, is measured by subtracting from the electrical equivalent of the transpulmonary pressure, a voltage proportional to the flow so as to synchronize the pressure and volume signals on the oscilloscope [Mead and Whittenberger, J. Appl. Physiol, 5, 779 (1953)]. The test compounds are administered by an Aerosol® route. The micronebulizer of a Bird Mark 7 respirator is fitted on the metallic cannula just after the pneumotachograph. The "puff" of the test compound, in Aerosol® is driven by a 2 Kg/cm^2 pressure, allowed into the micronebulizer just during one inspiration cycle. The micronebulizer is fitted on the respiratory tube only during the "puff". It is weighed just before and just after administration to determine the amount of test compound administered.

The subject of data set [2] is bronchospasms elicited by histamine. As to the kind of experiment: Bronchodilator Activity (Konzett Assay), histamine. It counts as in vivo. As to conditions: guinea pig, intravenous, spasmogen histamine, three logarithmic cumulative doses. How it is done: (§1) The bronchodilator activity of some of the PGE compounds of this invention is determined in guinea pigs against bronchospasms elicited by intravenous injections of 5-hydroxytryptamine, histamine or acetylcholine by the Konzett procedure. [See J. Lulling, P. Lievens, F. El Sayed and J. Prignot, Arzneimittel-Forschung, 18, 995 (1968)].
(§2) In the Table B which follows, bronchodilator activity for representative compounds of this invention against one or more of the three spasmogenic agents is expressed as an ED50 determined from the results obtained with three logarithmic cumulative intravenous doses.

The test system of data set [3] is bronchospasms elicited by acetylcholine. Put plainly: Bronchodilator Activity (Konzett Assay), acetylcholine. In kind it is in vivo. Conditions: guinea pig, intravenous, spasmogen acetylcholine, three logarithmic cumulative doses. The method, then: as §1, §2
Data set [4] relates to bronchospasms elicited by 5-hydroxytryptamine. As to the kind of experiment: Bronchodilator Activity (Konzett Assay), 5-hydroxytryptamine. In kind it is in vivo. Conditions: guinea pig, intravenous, spasmogen 5-hydroxytryptamine, three logarithmic cumulative doses. The method, then: as §1, §2
The test system of data set [5] is indomethacin-induced intestinal ulcers. It counts as in vivo, rat. As to conditions: indomethacin-only treatment, 10 mg/kg subcut. How it is done:
(§3) Male Wistar rats (Royal Hart, New Hampton, N.Y.), weighing 190-210 g are distributed among control and treatment groups (5 rats/group) and housed one rat per cage. During the 52 hour test period, the rats are permitted free access to food and drinking water for the first 33 hours but are fasted overnight prior to sacrifice. Indomethacin is suspended (4 mg/ml) in a 1.5% starch-phosphate buffer solution (SPBS). 1,9-dioxo-11α,16-dihydroxy-16-methyl-1-hydroxymethyl-13-transprostene is dissolved at 10 mg/ml in ethanol and then diluted in SPBS to 0.1 mg/ml or to a lower concentration as required. The indomethacin suspension is injected subcutaneously (10 mg/kg) and the prostaglandin suspension is given by gavage (0.5 mg/kg or less) b.i.d. on day 0 and 1. Rats receive only one dose of prostaglandin and indomethacin on day 2 and 6 hours later are killed with chloroform. The stomachs are dissected, opened along the greater curvature, and rinsed briefly in tap water. They are then spread, mucosal surface facing upward and pinned onto uniform size corks (2.5 inch diameter) individually numbered on the back. The identification number for each stomach is unknown to the investigator and the stomachs are randomly graded according to the following scheme:
Intestines are also removed and examined for the presence of ulcers, which are graded according to the scheme outlined below.
1--Mucosa thin, petechial hemorrhage
2--"Blow-outs", when intestine inflated with air
3--Few ulcers. Gut more fragile than normal, tears along line of mesentery attachements when removed
4--Many large perforating lesions. Adhesions. Gut hemorrhagic and very fragile. Tears readily and cannot be removed intact. Graded in situ.
(§4) ^a Treatment is B.I.D. on days 0 and 1, and once on day 2, six hours
(§5) prior to sacrifice for scoring.

Data set [6] is classed as in vivo, rat. As to conditions: indomethacin-only treatment, 10 mg/kg subcut. The method, then: as §3, §4, §5
The subject of data set [7] is indomethacin-induced gastric ulcers. It counts as in vivo, rat. As to conditions: indomethacin-only treatment, 10 mg/kg subcut. How it is done: as §3
1--Petechial hemorrhage, or pin-point ulcers
2--One or two small ulcers or hemorrhagic erosions
3--Many areas of hemorrhage erosion or ulcers, a few large
4--Massive areas of hemorrhagic erosion or many ulcers, mainly large
as §4, §5

[8] abbreviates: 5 min, 5 min. after drug administration.
[9] abbreviates: 0.5 h, 30 min. after drug administration.
[10] abbreviates: 1 h, 60 min. after drug administration.
The mark [11] stands for this setting: Cavia porcellus, read-out: ED50.

Turning to `C=CC(O)(CC=CC1C(O)CC(=O)C1CC=CCCCC(=O)CO)CCCC` (stereo not shown), the inhibition at 3200 µg/mL in data set [1] (setting [8]) worked out at 80%; in data set [1] (setting [9]) it was 80%; in data set [1] (setting [10]), 66%. Also, the 50% effective dose (ED50) in data set [2] (setting [11]) is 0.254 µg/kg; in data set [3] (setting [11]), 2.66 µg/kg; in data set [4] (setting [11]) it was 0.402 µg/kg.
As for `C=CC(O)(CC=CC1C(O)CC(=O)C1CC=CCCCC(=O)COC(C)=O)CCCC` (stereo not drawn) [1,9-Dioxo-11α,16-dihydroxy-16-vinyl-1-acetoxymethyl-5-cis-13-trans-prostadiene], the inhibition at 3200 µg/mL in data set [1] (setting [8]) was determined as 92%; in data set [1] (setting [9]), 75%; in data set [1] (setting [10]), 55%. Further, the ED50 in data set [2] (setting [11]) came to 0.78 µg/kg; in data set [3] (setting [11]) it was 0.795 µg/kg.
Take `CCCCC1(C(O)C=CC2C(O)CC(=O)C2CC=CCCCC(=O)CO)CCC1` (stereo not drawn) [1,9-dioxo-11α,15-dihydroxy-1-hydroxymethyl-16,16-trimethylene-13-trans-5-cis-prostadiene]: the inhibition at 3200 µg/mL was found to be 80% in data set [1] (setting [8]), 74% in data set [1] (setting [9]) and 68% in data set [1] (setting [10]).
Turning to `CCCCC1(C(O)C=CC2C(O)CC(=O)C2CCCCCCC(=O)CO)CCC1` (stereo not drawn) [1,9-dioxo-11α,15-dihydroxy-1-hydroxymethyl-16,16-trimethylene-13-trans-prostene], the results for the inhibition at 3200 µg/mL in data set [1] (setting [8]), in data set [1] (setting [9]) and in data set [1] (setting [10]) were 90%, 75% and 60%, respectively. Further, the ED50 in data set [2] (setting [11]) is 0.734 µg/kg; in data set [3] (setting [11]), 1.3 µg/kg; in data set [4] (setting [11]) it was 1.4 µg/kg.
Consider `CCCCCC(O)C=CC1C(O)CC(=O)C1CCCCCCC(=O)CO` (stereo not drawn) [1,9-dioxo-11α,15α-dihydroxy-1-hydroxymethyl-13-trans-prostene], for which the inhibition at 3200 µg/mL amounted to 80% in data set [1] (setting [8]), 40% in data set [1] (setting [9]) and 15% in data set [1] (setting [10]). Further, the ED50 in data set [2] (setting [11]) turned out to be 0.547 µg/kg; in data set [3] (setting [11]), 3.9 µg/kg; in data set [4] (setting [11]), 0.936 µg/kg.
Regarding `CCCCC1(C(O)/C=C/C2C(O)CC(=O)C2C/C=C\CCCC=O)CCC1` (stereo not drawn) [1,9-dioxo-11α,15α-dihydroxy-16,16-trimethylene-5-cis,13-trans-prostadiene], the results for the ED50 in data set [2], in data set [3] and in data set [4] were 0.781 µg/kg, 0.995 µg/kg and 1.49 µg/kg, respectively.
Take `C=CC(O)(CC=CC1C(O)CC(=O)C1CCCCCCC(=O)CO)CCCC` (stereo not drawn) [1,9-dioxo-11α,16-dihydroxy-1-hydroxymethyl-16-vinyl-13-trans-prostene]: the inhibition at 3200 µg/mL is 90% in data set [1] (setting [8]), 80% in data set [1] (setting [9]) and 70% in data set [1] (setting [10]). Also, the ED50 was determined as 0.25 µg/kg in data set [2] (setting [11]), 1.7 µg/kg in data set [3] (setting [11]) and 0.147 µg/kg in data set [4] (setting [11]).
For the molecule `CCCCCC(C)(O)CC=CC1C(O)CC(=O)C1CC=CCCCC(=O)CO` (stereo not drawn) [1,9-dioxo-11α,16-dihydroxy-16,20-dimethyl-1-hydroxymethyl-13-trans-5-cis-prostadiene], the ED50 in data set [2] (setting [11]) came to 8.8 µg/kg; in data set [3] (setting [11]) it was 19 µg/kg; in data set [4] (setting [11]) it was 47 µg/kg.
Take `CCCCCC(C)(O)CC=CC1C(O)CC(=O)C1CCCCCCC(=O)CO` (stereo not drawn) [1,9-dioxo-11α,16-dihydroxy-16,20-dimethyl-1-hydroxymethyl-13-trans-prostene]: the figures for the inhibition at 3200 µg/mL in data set [1] (setting [8]), in data set [1] (setting [9]) and in data set [1] (setting [10]) were 55%, 70% and 55%, respectively.
For `CCCCC(O)(CC)CC=CC1C(O)CC(=O)C1CC=CCCCC(=O)CO` (stereo not drawn) [1,9-dioxo-11α,16-dihydroxy-16-ethyl-1-hydroxymethyl-5-cis-13-trans-prostadiene], the inhibition at 3200 µg/mL in data set [1] (setting [8]) came out at 70%; in data set [1] (setting [9]), 50%; in data set [1] (setting [10]), 35%.
Turning to `CCCCCC(C)(O)/C=C/C1CCC(=O)C1CCCCCCC(=O)CO` (stereo not drawn) [1,9-dioxo-15α-hydroxy-15-methyl-1-hydroxymethyl-13-trans-prostene], the “% Inhibition of pilocarpine induced spasm” value in data set [1] (5 min. after drug administration) is 37%; in data set [1] (30 min. after drug administration), 30%; in data set [1] (60 min. after drug administration) it was 30%. Besides, the values for the ED50 in data set [2], in data set [3] and in data set [4] were 0.373 µg/kg, 0.293 µg/kg and 0.288 µg/kg, respectively.
As for `COc1ccc2c(c1)c(CC(=O)O)c(C)n2C(=O)c1ccc(Cl)cc1` [Indomethacin, reference compound], in data set [5], the “Intestinal Ulcer Score (Mean ± S.E.M.)” value was 3.7 ± 0.2. In addition, the “Hematocrit (Mean ± S.E.M.)” value in data set [6] stood at 33.1 ± 2.1. Also, the “Gastric Ulcer Score (Mean ± S.E.M.)” value in data set [7] is 2.9 ± 0.2.
As to `CCCCCC(O)CCC1CCC(=O)C1CCCCCCC(=O)CO` [l-1,9-dioxo-15(S)-hydroxy-1-hydroxymethyl prostane], the inhibition at 3200 µg/mL in data set [1] (setting [8]) was 70%; in data set [1] (setting [9]) it was 45%; in data set [1] (setting [10]) it was 30%. Also, the median effective dose (ED50) amounted to 0.471 µg/kg in data set [2] (setting [11]) and 0.89 µg/kg in data set [4] (setting [11]).
